Results on eight molecules are retold here after US20240207457A1, “CANCER-SPECIFIC POLYPEPTIDE AND USE THEREOF” (THE CATHOLIC UNIVERSITY OF KOREA INDUSTRY-ACADEMIC …, priority 2021, published 2024).

Where no end group is shown, it is not given here. Some results are limits rather than exact numbers.

Series [1] relates to MKN45 cells. Briefly: ROS detection by DCF-DA staining. The format is cell-based. The note with it: Ce6-peptide with laser irradiation, FIG. 9. The protocol: To confirm whether cells were killed by photodynamic therapy, DCF-DA staining was performed to check whether cell death, the mechanism of the corresponding treatment, was caused by reactive oxygen species (ROS).
Series [2] has as its system MKN45 cells. Briefly: Dark toxicity experiment without laser irradiation. The note with it: for dark toxicity: 0 to 100 nM and 1 μM, FIGS. 8A and 8B. The format is cell-based. The procedure:
To analyze cytotoxicity through photodynamic therapy, MKN45 cells were treated with Ce6 and the Ce6-peptide at concentrations of 0, 1, 5, 10, 20, 50, 100 nM, […]

Series [3] deals with MKN45 xenograft mouse model. Briefly: Local tumor treatment efficacy through peptide and laser irradiation. In kind it is in vivo, mice. The note with it: for body weight during the treatment period: laser 200 J. The protocol:
To confirm local tumor treatment efficacy using the peptide, an experiment was performed by dividing the mice in Example 6 into four groups: an untreated group, a group irradiated with a laser beam, a group irradiated with a laser beam after Ce6 administration, and a group irradiated with a laser beam after Ce6-peptide administration. Ce6 and the Ce6-peptide were administered at a concentration of 5 mg/kg into the tail vein. When 4 hours elapsed, the tumor area was irradiated with a laser beam for 9 minutes under conditions based on 200 J and 300 mW.

In series [4] the test system is MKN45 cells. Briefly: Photodynamic therapy cytotoxicity with laser irradiation. The format is cell-based. The following applies: laser 10 J, 500 mW, 3 cm, 2 minutes 35 seconds. The procedure: To analyze cytotoxicity through photodynamic therapy, MKN45 cells were treated with Ce6 and the Ce6-peptide at concentrations of 0, 1, 5, 10, 20, 50, 100 nM, and 1 μM and then irradiated with a laser beam based on 10 J, 500 mW, and 3 cm for 2 minutes and 35 seconds.

Series [5] has as its system MKN45 intraperitoneal metastasis model. Briefly: Peptide targeting ability in intraperitoneal metastasis model (IVIS). In kind it is in vivo, Balb/c nude mice. The following applies: 5 mg/kg. The procedure:
Through Example 6, the targeting ability in vivo of the peptide was confirmed in the xenograft model using MKN45, the gastric cancer cell line. Accordingly, to further verify the targeting ability in an intraperitoneal metastasis model, the same MKN45 cell line was injected intraperitoneally, and the targeting ability of the peptide was further verified.
Intraperitoneal metastasis was confirmed within two weeks by injecting 1×10^7 of the GFP-tagged MKN45 cell line into 5-week-old Balb/c nude mice. As a result, as shown in FIGS. 14A and 14B, additional infiltration of the cells into the liver, kidney, and spleen tissues and large tumors with a size of about 2 cm were observed.
To confirm the targeting ability of the peptide, modeled mice with intraperitoneal metastasis were treated with Ce6 and the Ce6-peptide at a concentration of 5 mg/kg and autopsied 4 hours after the treatment to confirm the concentration of the substance in the tissues using an IVIS.

Series [6] concerns AGS, MKN45, and MKN28 gastric cancer cell lines and CCD841 normal cells. The series can be described thus: Cellular uptake of Ce6-peptide. In kind it is cell-based. The note with it: 10 uM; FIG. 7. The protocol: (§1) To confirm the tumor-targeting and therapeutic efficacies of the peptide, photodynamic therapy using chlorin e6 (Ce6), a photosensitizer, was performed. First, to confirm the degree of cellular uptake of Ce6-peptide, AGS, MKN45, and MKN28, gastric cancer cell lines, and CCD841 cells, normal cells, were each independently treated with the Ce6-peptide at a concentration of 10 uM.

The test system of series [7] is MKN45 xenograft mouse model. The series can be described thus: Ex vivo tumor-targeting analysis of extracted organs (IVIS). The format is in vivo, mice. The note with it: organs extracted 4 hours after injection, 5 mg/kg. The procedure:
To confirm the tumor-targeting ability of Ce6-peptide, an in vivo targeting experiment was performed on an MKN45 xenograft mouse model. Ce6 and the Ce6-peptide were injected at a concentration of 5 mg/kg into the tail vein of mice in which a tumor with a diameter of about 8 mm was developed. After 4 hours, the concentration of Ce6 in the tumor was confirmed using an in vivo imaging system (IVIS).
In addition, organs were extracted from each subject 4 hours after the injection to analyze tumor-targeting ability ex vivo using an IVIS.

Series [8] deals with tumor tissue. Briefly: Tumor tissue treated with FITC-bound target and negative control peptide. The note with it: peptides binding to FITC; FIG. 13. The protocol:
To confirm the tumor-targeting ability of the target peptide, the tumor tissue was treated with both the target peptide and a negative control peptide, not having the attachment ability to tumors, binding to FITC. The negative control peptide is a peptide made by randomly mixing the amino acid positions of the […] peptide sequence “QLMRPPV” (SEQ ID NO: 2).

The subject of series [9] is MKN45 xenograft model. The series can be described thus: Targeting ability in vivo of Cy5.5-binding peptide. On the set-up: species or system mice. The note with it: FIGS. 6A and 6B. The procedure:
Through Examples 1 to 3, the gastric cancer-targeting ability of the peptide was confirmed at the cellular level. Accordingly, to confirm the targeting ability in vivo, a xenograft model was created using MKN45 in 5-week-old immunodeficient mice. Then, Cy5.5-binding peptide was injected at a concentration of 50 nM into the tail vein.

Series [10] relates to HEK293T kidney cells not containing the LGR5 receptor. Briefly: Immunochemical staining of FITC-peptide in HEK293T cells. The format is cell-based. The following applies: bound to FITC, FIG. 3. The text has this: (§2) To confirm the attachment abilities, phage No. 24 and the peptide were each independently bound to FITC to perform immunochemical staining.
In series [11] the test system is AGS, MKN45, and MKN28, the gastric cancer cell lines (vs CCD841 normal colonic epithelial cell line). Briefly: Immunochemical staining of FITC-bound phage and peptide (attachment ability). In kind it is cell-based. The note with it: bound to FITC, FIG. 2.
From the text: as §2

Series [12] concerns MKN45 gastric cancer cells vs CCD841 normal cells. The series can be described thus: FITC fluorescence density by flow cytometer. In kind it is cell-based. The note with it: 25, 50, and 100 µM for 1 hour, FIGS. 5A and 5B. The procedure:
In addition, after treating each of the CCD841 cells and the MKN45 cells with FITC-peptide at a concentration of 25, 50, and 100 µM for 1 hour, the FITC fluorescence density was measured using a flow cytometer.
On the technique in general: Flow cytometry measures light scatter and fluorescence of single cells or particles in a stream.

Series [13] deals with CCD841 cells and MKN45 cells. Briefly: Fluorescence density saturation of FITC-peptide. In kind it is cell-based. The note with it: FIG. 4. The protocol: To confirm the maximum fluorescence absorption capacity of FITC-peptide, CCD841 cells and MKN45 cells were attached to each 8-well chamber. Then, the chamber was treated with the peptide at concentrations of 1, 10, 25, 50, 100, 200, 400, and 800 uM.

For series [14], the target named is T1, LGR5 protein on gastric cancer cell lines (AGS, MKN45, MKN28) (UniProt O75473 22-907, limits assumed).
T1 construct: whole, on cells; also called LGR5 receptor; gastric cancer cell lines containing LGR5
T1 sequence (looked up): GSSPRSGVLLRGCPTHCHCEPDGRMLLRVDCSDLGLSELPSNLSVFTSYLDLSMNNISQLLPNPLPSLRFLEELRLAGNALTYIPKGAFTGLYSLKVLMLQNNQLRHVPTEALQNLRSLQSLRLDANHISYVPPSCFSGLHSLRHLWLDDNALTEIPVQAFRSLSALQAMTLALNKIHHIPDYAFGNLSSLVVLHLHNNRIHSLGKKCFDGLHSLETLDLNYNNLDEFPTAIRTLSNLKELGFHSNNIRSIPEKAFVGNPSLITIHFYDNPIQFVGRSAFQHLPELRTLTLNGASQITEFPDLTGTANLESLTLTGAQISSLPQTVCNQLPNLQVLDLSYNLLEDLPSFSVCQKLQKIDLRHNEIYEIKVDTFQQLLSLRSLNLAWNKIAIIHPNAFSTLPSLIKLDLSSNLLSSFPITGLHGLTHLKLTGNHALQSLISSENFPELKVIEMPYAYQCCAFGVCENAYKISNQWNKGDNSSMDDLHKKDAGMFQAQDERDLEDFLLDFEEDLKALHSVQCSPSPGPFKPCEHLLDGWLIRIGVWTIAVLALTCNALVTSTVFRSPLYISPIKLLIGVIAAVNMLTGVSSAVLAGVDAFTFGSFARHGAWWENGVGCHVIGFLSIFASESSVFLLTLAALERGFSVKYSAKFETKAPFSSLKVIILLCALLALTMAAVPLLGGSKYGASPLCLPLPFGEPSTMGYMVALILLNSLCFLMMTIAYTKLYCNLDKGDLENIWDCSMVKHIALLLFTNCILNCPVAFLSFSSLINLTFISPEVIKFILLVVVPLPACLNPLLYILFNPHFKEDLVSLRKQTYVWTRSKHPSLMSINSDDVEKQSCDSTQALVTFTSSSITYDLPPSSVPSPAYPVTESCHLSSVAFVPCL
The series can be described thus: cell fluorescence after 10 uM Ce6-peptide on AGS, MKN45 and MKN28 versus CCD841 cells. The procedure:
as §1

The mark [15] stands for this setting: 5 mg/kg tail vein, 300 mW, 9 minutes.
The mark [16] stands for this setting: injected at 50 nM into the tail vein.

With `OO` [hydrogen peroxide, reference compound], the ROS detection entry in series [1] is listed as “ROS was detected”.
“Ce6-peptide: peptide of SEQ ID NO: 1 bound to chlorin e6 (Ce6), a photosensitizer (STCTRSR; also: bound to chlorin e6 (site not given here))”: in series [1], the ROS detection entry is recorded as “detected in a concentration-dependent manner”. Moreover, in [2], the dark toxicity result is “significant toxicity was not induced”. The same molecule gave a cells killed in series [2] (1 μM) of 60%. Moreover, the “body weight during the treatment period” value in series [3] (setting [15]) was “No change in body weight was observed”. The “time after the treatment at which tumor necrosis was observed” value in series [3] (5 mg/kg tail vein, laser after 4 hours, 200 J, 300 mW, 9 minutes) was 2 days. In series [3] (on the 7th day, 5 mg/kg plus laser, FIGS. 12A and 12B), the “tumor size compared with the other groups” value is listed as “significantly reduced”. Besides, the “concentration from which cells were rapidly killed” value in [4] was no less than 50 nM. For the same molecule, in [5] (4 hours after the treatment), the “concentration in the kidney” value is on record as “high concentration in the kidney”, the “excretion from the body compared with Ce6 alone” value was “more likely to be excreted from the body” and the “non-specific binding to other organs compared with Ce6 alone” value is on record as “less likely to non-specifically bind to other organs”. For the same molecule, the “tumor-targeting ability compared with Ce6 alone” value in series [5] (autopsied 4 hours after the treatment, FIGS. 15A and 15B) is “better”. For the same molecule, the “fluorescence density, gastric cancer cell lines compared with normal cell line” value in series [6] is “higher”. Also, the “tumor-targeting ability ex vivo compared with Ce6 alone” value in [7] was “significantly better”.
Turning to “negative control peptide: peptide made by randomly mixing the amino acid positions of the non-specific binding peptide sequence QLMRPPV (SEQ ID NO: 2); bound to FITC (also: bound to FITC (site not given here)) [reference compound]”, the “fluorescence based on FITC attachment to tumor tissue” value in series [8] was “not confirmed”.
As for “Cy5.5-binding peptide: peptide of SEQ ID NO: 1 bound to Cy5.5, a fluorescent material (STCTRSR; also: bound to Cy5.5 (site not given here))”, the “tumor-targeting ability compared with the control peptide group” value in series [9] is recorded as “further better tumor-targeting ability”. Further, in series [9] (setting [16]), the “fluorescence density in the tumor tissue” value is “significantly high fluorescence density” and the “fluorescence in other organs (heart, lung, liver, spleen, kidney)” value is recorded as “poorly detected”.
Consider STCTRSR (LGR5-targeting peptide), for which, in series [10], the “attachment ability in HEK293T kidney cells” value is “not able to be confirmed”. Moreover, in [8], the “fluorescence based on FITC attachment to tumor tissue” value was “significantly high”. Further, the “attachment ability, gastric cancer cell lines compared with CCD841” value in [11] (AGS, MKN45, MKN28 vs CCD841 normal colonic epithelial cell line) is listed as “better”. For the same molecule, in series [11] (MKN45), the “attachment ability in the MKN45 cell line” value is on record as “significantly good”.
Consider “FITC-peptide: peptide of SEQ ID NO: 1 bound to FITC, a fluorescent material (STCTRSR; also: bound to FITC (site not given here))”, for which the “FITC fluorescence density value, MKN45 compared with CCD841” value in [12] is “increased in a concentration-dependent manner”. The “concentration from which fluorescence density was saturated in all cells” value in series [13] (CCD841 and MKN45 cells) was no less than 100 UM. In [13] (treated at 1 to 800 uM), the “concentration at which the difference in fluorescence density values between CCD841 and MKN45 cells was the largest” value is 25 UM.
As to chlorin e6 [Ce6, reference compound], the dark toxicity result in series [2] is “significant toxicity was not induced”. In addition, in series [3] (setting [15]), the “body weight during the treatment period” value is given as “No change in body weight was observed”. Further, the “cell killing with laser irradiation” value in series [4] is reported as “cells were not killed”. Besides, the “infiltration into the tumor compared with other organs (heart, lung, liver, spleen, kidney)” value in series [7] (FIGS. 11A and 11B) is “more infiltrated into the tumor than into other organs”.

B1: Ce6-peptide (STCTRSR peptide of SEQ ID NO: 1 bound to chlorin e6) (peptide)
peptide: STCTRSR
modifications: also: chlorin e6 bound to the peptide (site not given here)
notes: also called photosensitizer-peptide composite
Regarding B1, in series [14], the “fold difference in uptake (fluorescence density), gastric cancer cell lines versus normal CCD841 cells” value is no less than 11 times.
